Source: publication PMC7799360, “Reprogramming immunosuppressive myeloid cells facilitates immunotherapy for colorectal cancer” (EMBO Molecular Medicine, 2020)

What was measured:
HT29 = test: Cell viability (MTS); assay type: cell-based, human; conditions: HT29, 100 µM
From the text: (§1) The murine colon cancer (CT26), murine breast cancer (4T1), and human colon cancer (HCT116, HCT8, HT29, and DLD1) cell lines were obtained from American Type Culture Collection (ATCC). The murine cell lines of melanoma (B16F10), pancreatic cancer (Pan02), and colon cancer (MC38), Chinese hamster ovary (CHO) cell line, and human embryonic kidney cell lines (HEK293 and HEK293T) were purchased from the National Infrastructure of Cell Line Resource (Shanghai, China). Primary human endothelial cells (HUVECs) were kindly provided by Dr. Xinli Wang (Baylor College of Medicine, Houston, TX, USA) and cultured in endothelial cell medium (ScienCell, San Diego, CA, USA) according to the manufacturer’s instructions. The CHO‐Gα16 cell line was established in our previous study and maintained in DMEM/F12 medium containing puromycin (4 μg/ml) (Wu et al., 2018). Cell lines were maintained in vendor recommended growth medium supplemented with 10% FBS (Gibco, Waltham, MA, USA) and 1% penicillin/streptomycin solution (Gibco) at 37°C ins a humidified atmosphere (5% CO2). All cell lines were authenticated using short tandem repeat analysis. All cell lines were confirmed to be mycoplasma‐free by polymerase chain reaction (PCR) analysis. Cell viability was determined using CellTiter 96 ® Aqueous One Solution (Promega, Madison, WI).
(§2) Appendix Figure S1. […]. The cytotoxicity curves
(§3) . Mouse cancer cells: CT26
(§4) . Human colon cancer cells: HCT116 (E),
(§5) HCT8 (F), HT29 (G) and DLD1 (H). Human normal cell line: HUVECs (I). Cell
(§6) viability was measured by MTS. Data are presented as mean ± SEM derived
(§7) from three independent experiments (n=3).
(§8) (1 picture or pasted object on this page, not shown here)

HCT116 = test: Cell viability (MTS); assay type: cell-based, human; conditions: HCT116, 100 µM
From the text: as §1, §2, §3, §4, §5, §6, §7, §8

DLD1 = test: Cell viability (MTS); assay type: cell-based, human; conditions: DLD1, 100 µM
From the text: as §1, §2, §3, §4, §5, §6, §7, §8

HCT8 = test: Cell viability (MTS); assay type: cell-based, human; conditions: HCT8, 100 µM
From the text: as §1, §2, §3, §4, §5, §6, §7, §8

CT26 tumors = test: CT26 subcutaneous syngeneic tumor model in BALB/c mice; assay type: in vivo, mouse
Protocol: (§9) Syngeneic mouse tumor‐bearing models were established as described previously (Tan et al., 2018). Tumor cells (5 × 10^5 ‐ 2 × 10^6) were suspended in 100 μl PBS and implanted subcutaneously into the flank of mice. Mice were randomized into different treatment groups when tumor volumes reached 100‐200 mm^3. V = L×W^2 × 0.52, where L is the longest diameter, and W is the shortest diameter. Tumor size and body weight were recorded every second or third day. Mouse survival was analyzed using the Kaplan–Meier method.
(§10) Single agent or combination treatment was designed as follows: TP‐16 (37.5, 75, 150 mg/kg) or celecoxib (100 mg/kg) was formulated in 0.5% carboxymethylcellulose sodium (CMC‐Na, Sangon Biotech, Shanghai, China) and administered via oral gavage daily. In vivo anti‐PD1 antibody (clone RMP1‐14, BioXCell, West Lebanon, NH, USA) and rat IgG2a isotype control (clone 2A3, BioXCell) were diluted in sterile PBS and administered intraperitoneally at a dose of 50 μg twice weekly.

[1] = test system: AOM/DSS-induced colorectal tumors; test: AOM/DSS-induced colorectal cancer model; assay type: in vivo, mouse; conditions: AOM/DSS mice, TP-16 75 mg/kg po daily, anti-PD-1 50 μg ip twice weekly, 5 weeks
Protocol: ; i.p.; Sigma‐Aldrich, St. Louis, MO, USA). After 1 week of rest, mice were provided with 2.5% DSS (MP Biomedicals, Santa Ana, CA, USA) in their drinking water for 5 days, followed by DSS‐free water for two weeks. The DSS treatment cycle was carried out three times in total, and mice were randomized into four groups and subjected to the therapeutic protocol. Mice were sacrificed at 37 days after the indicated treatments.
as §10

4T1 tumors = test: 4T1 breast cancer model in BALB/c mice; assay type: in vivo, mouse; conditions: 4T1, BALB/c mice, 75 mg/kg p.o. daily
Protocol: as §9, §10

AODRA1 = AODRA1 (Homo sapiens, UniProt P30542); test: LANCE Ultra cAMP assay
ADORA2A = target: T1, ADORA2A (Homo sapiens, UniProt P29274); test: LANCE Ultra cAMP assay; assay type: cell-based
T1 construct: Pharmaron (Beijing, China) performed the assay

STAT3 and AKT signaling = test: Western blot of p-STAT3 and p-AKT in bone marrow-derived macrophages; assay type: cell-based, mouse; conditions: BMMs, IL-4 20 ng/ml + 100 nM PGE2, 10 μM TP-16
Protocol: Briefly, cells and tumor tissues were lysed with radio immunoprecipitation assay buffer containing phosphatase and protease inhibitor cocktail (MedChemExpress, Monmouth Junction, NJ, USA). A total of 30‐80 μg of normalized total proteins from lysates were run on 6‐10% SDS‐polyacrylamide gels. The proteins transferred from gels to nitrocellulose membranes (Millipore, Billerica, MA, USA) were incubated with primary antibodies overnight at 4°C, washed, and incubated with secondary antibodies for 1 h at room temperature. Visual signals were detected using the LI‐COR Odyssey Infrared Imaging System (LI‐COR Biosciences, Lincoln, NE). Mouse protein primary antibodies used for Western blotting were listed as follows: COX2 (1:1000 dilution, 12282, CST), p‐Stat3 (1:2000 dilution, Tyr^705, 9145, CST), Stat3 (1:1000 dilution, 9139, CST), p‐Akt (1:2000 dilution, Ser^473, 4060, CST), Akt (1:1000 dilution, 9272, CST), Arg‐1 (1:100 dilution, 16001, Proteintech, Rosemont, IL), and GAPDH (1:10000 dilution, Ab181602, Abcam).

CT26 = test: Cell viability (MTS); assay type: cell-based, mouse; conditions: CT26, 100 µM
From the text: as §1, §2, §3, §4, §5, §6, §7, §8

Panc02 = test: Cell viability (MTS); assay type: cell-based, mouse; conditions: Panc02, 100 µM
From the text: as §1, §2, §3, §4, §5, §6, §7, §8

MC38 = test: Cell viability (MTS); assay type: cell-based, mouse; conditions: MC38, 100 µM
From the text: as §1, §2, §3, §4, §5, §6, §7, §8

4T1 = test: Cell viability (MTS); assay type: cell-based, mouse; conditions: 4T1, 100 µM
From the text: as §1, §2, §3, §4, §5, §6, §7, §8

OPRM1 = target: T2, OPRM1 (Homo sapiens, UniProt P35372); test: GPCR calcium flux assay; assay type: cell-based
T2 construct: Pharmaron (Beijing, China), contract laboratory
T2 sequence (P35372 whole entry, species assumed): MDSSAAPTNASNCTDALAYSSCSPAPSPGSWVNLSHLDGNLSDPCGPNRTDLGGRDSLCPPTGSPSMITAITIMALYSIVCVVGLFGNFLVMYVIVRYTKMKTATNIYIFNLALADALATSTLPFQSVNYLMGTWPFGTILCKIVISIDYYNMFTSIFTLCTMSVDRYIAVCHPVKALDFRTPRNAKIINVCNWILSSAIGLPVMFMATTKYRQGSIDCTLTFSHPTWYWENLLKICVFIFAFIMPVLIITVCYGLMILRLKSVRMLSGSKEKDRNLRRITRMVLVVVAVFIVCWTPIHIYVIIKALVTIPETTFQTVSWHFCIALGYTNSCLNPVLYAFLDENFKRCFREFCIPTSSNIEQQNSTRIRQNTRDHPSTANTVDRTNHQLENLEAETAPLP

Sequence of AODRA1 (P30542 whole entry): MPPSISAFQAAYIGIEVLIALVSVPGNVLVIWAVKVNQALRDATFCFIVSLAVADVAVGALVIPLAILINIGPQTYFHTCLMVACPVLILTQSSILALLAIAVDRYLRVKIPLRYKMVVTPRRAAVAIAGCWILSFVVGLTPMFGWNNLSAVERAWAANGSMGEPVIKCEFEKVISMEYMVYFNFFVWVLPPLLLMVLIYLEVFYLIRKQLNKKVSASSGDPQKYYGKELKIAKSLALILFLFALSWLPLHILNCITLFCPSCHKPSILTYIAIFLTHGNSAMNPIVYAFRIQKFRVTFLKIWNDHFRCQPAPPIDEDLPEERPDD
T1 sequence (P29274 whole entry, species assumed): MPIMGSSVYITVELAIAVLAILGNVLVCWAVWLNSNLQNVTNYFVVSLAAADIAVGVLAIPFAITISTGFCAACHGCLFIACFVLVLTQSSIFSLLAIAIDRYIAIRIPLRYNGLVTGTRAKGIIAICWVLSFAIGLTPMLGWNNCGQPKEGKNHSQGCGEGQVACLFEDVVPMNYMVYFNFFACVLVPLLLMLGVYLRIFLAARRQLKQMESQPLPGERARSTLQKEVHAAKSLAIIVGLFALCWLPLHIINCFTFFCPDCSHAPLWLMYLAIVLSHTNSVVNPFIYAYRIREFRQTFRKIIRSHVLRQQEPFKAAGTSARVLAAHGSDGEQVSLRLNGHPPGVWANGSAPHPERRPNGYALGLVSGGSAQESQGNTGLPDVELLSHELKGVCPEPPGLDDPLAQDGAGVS

## C[C@H](NC(=O)c1c(Cc2ccc(F)cc2)sc2c1CCOC2)c1ccc(C(=O)O)cc1 [TP-16]
HT29
  effect on cell viability: did not affect the viability
HCT116
  effect on cell viability: did not affect the viability
DLD1
  effect on cell viability: did not affect the viability
HCT8
  effect on cell viability: did not affect the viability
CT26 tumors; CT26, BALB/c mice, 37.5 mg/kg p.o. daily, 16 days
  %TGI (tumor growth inhibition): 26.2%
CT26 tumors; CT26, BALB/c mice, 75 mg/kg p.o. daily, 16 days
  %TGI (tumor growth inhibition): 47.4%
CT26 tumors; CT26, BALB/c mice, 150 mg/kg p.o. daily, 16 days
  %TGI (tumor growth inhibition): 47.6%
CT26 tumors; CT26, BALB/c mice, both 150 mg/kg
  anti-tumor efficacy compared with E7046: greater efficacy than E7046
CT26 tumors; CT26, BALB/c, TP-16 75 mg/kg p.o. daily, anti-PD-1 50 μg i.p. twice weekly, 2 weeks, control 16 days
  median survival time: 30 days
CT26 tumors; CT26, TP-16 75 mg/kg vs celecoxib 100 mg/kg, p.o. daily, 16 days
  anti-tumor efficacy compared with celecoxib: superior
[1]
  tumor number (multiplicity) and size: moderately reduced
4T1 tumors
  %TGI: 27.3%
AODRA1
  IC50: > 10 µM
ADORA2A
  IC50: > 10 µM
STAT3 and AKT signaling
  IL-4/PGE2-induced phosphorylation of STAT3 and AKT: significantly reversed
CT26
  effect on cell viability: did not affect the viability
Panc02
  effect on cell viability: did not affect the viability
MC38
  effect on cell viability: did not affect the viability
4T1
  effect on cell viability: did not affect the viability
OPRM1
  IC50: > 10 µM
